US8940720B2, “Macrocycles as factor XIa inhibitors” (Bristol-Myers Squibb Company, priority 2010, dated 2015)
Like-named read-outs stand apart in the source and are kept apart here.

Experiments:
[1] = from C=CCCC(=O)Nc1cc(NC(=O)OC)ccc1-c1nnc(Cl)cc1C(CC=C)NC(=O)OC(C)(C)C; rcm bond; 12-membered ring; Grubbs II (0.3 eq); DCM; 6.6 mM
[2] = target: purified human Factor XIa (Homo sapiens (Human), UniProt P03951); assay: Factor XIa enzyme inhibition assay (chromogenic substrate S-2366); format: biochemical; conditions: substrate S-2366, pH 7.4
purified human Factor XIa, sequence (P03951 388-625): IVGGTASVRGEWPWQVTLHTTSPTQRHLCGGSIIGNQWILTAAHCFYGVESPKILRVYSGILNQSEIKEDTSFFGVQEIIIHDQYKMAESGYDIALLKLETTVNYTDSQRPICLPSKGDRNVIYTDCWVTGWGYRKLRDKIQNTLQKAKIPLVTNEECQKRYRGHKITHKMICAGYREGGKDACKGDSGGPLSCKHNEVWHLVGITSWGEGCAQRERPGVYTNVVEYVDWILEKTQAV
purified human Factor XIa, sequence (P03951 19-387 partner): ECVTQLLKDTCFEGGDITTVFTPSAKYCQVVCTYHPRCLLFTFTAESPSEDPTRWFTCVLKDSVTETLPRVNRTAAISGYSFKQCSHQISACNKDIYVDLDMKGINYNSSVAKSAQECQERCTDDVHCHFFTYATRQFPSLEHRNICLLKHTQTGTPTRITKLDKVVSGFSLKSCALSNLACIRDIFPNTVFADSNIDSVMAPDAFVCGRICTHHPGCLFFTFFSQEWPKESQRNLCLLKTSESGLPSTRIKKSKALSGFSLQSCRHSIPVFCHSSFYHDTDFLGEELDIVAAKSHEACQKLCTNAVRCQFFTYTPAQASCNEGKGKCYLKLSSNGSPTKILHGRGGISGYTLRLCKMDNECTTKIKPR
Experimental: The effectiveness of compounds of the present invention as inhibitors of the coagulation Factors XIa, VIIa, IXa, Xa, XIIa, plasma kallikrein or thrombin, can be determined using a relevant purified serine protease, respectively, and an appropriate synthetic substrate. The rate of hydrolysis of the chromogenic or fluorogenic substrate by the relevant serine protease was measured both in the absence and presence of compounds of the present invention. […] A decrease in the rate of absorbance or fluorescence change in the presence of inhibitor is indicative of enzyme inhibition. Such methods are known to one skilled in the art. The results of this assay are expressed as the inhibitory constant, Ki.
Values of Ki were determined by allowing the protease to react with the substrate in the presence of the inhibitor. Reactions were allowed to go for periods of 20-180 minutes (depending on the protease) and the velocities (rate of absorbance or fluorescence change versus time) were measured. The following relationships were used to calculate Ki values: (vo−vs)/vs=I/(Ki(1+S/Km)) for a competitive inhibitor with one binding site; or vs/vo=A+((B−A)/1+((IC50/(I)n))); and Ki=IC50/(1+S/Km) for a competitive inhibitor where: […]

For `CC(C)(C)OC(=O)N[C@H]1CC=CCCCc2ccccc2-c2cn(COCC[Si](C)(C)C)c1n2`, the ring closure, yield of all isomers (from C=CCCCc1ccccc1-c1cn(COCC[Si](C)(C)C)c([C@H](CC=C)NC(=O)OC(C)(C)C)n1, rcm bond, Grubbs II, DCM, 0.97 mM, 40.0 °C, 1.0 h) was 62.9%.
`CC(C)(C)OC(=O)N[C@H]1CC=CCCOc2ccccc2-c2cn(COCC[Si](C)(C)C)c1n2` gave a ring closure, yield of all isomers (from C=CCCOc1ccccc1-c1cn(COCC[Si](C)(C)C)c([C@H](CC=C)NC(=O)OC(C)(C)C)n1, rcm bond, Grubbs II, DCM, 1.02 mM, 40.0 °C, 1.0 h) of 29%.
In the case of `COC(=O)Nc1ccc2c(c1)CCCN(C)C(=O)C[C@H](NC(=O)OC(C)(C)C)c1nc-2cn1COCC[Si](C)(C)C`, the ring closure, yield of all isomers (from CNCCCc1cc(NC(=O)OC)ccc1-c1cn(COCC[Si](C)(C)C)c([C@H](CC(=O)O)NC(=O)OC(C)(C)C)n1, amide bond, BOP, DCM, 8.64 mM, 25.0 °C, 2.0 h) is reported as 39.4%.
`COC(=O)Nc1ccc2c(c1)NC(=O)C/C=C/CC(NC(=O)OC(C)(C)C)c1cc-2nc(C)n1` (stereo not drawn) showed a ring closure, yield of all isomers (from C=CCC(=O)Nc1cc(NC(=O)OC)ccc1-c1cc(C(CC=C)NC(=O)OC(C)(C)C)nc(C)n1, rcm bond, Grubbs II, DCM, 0.5 mM, 40.0 °C, 4.0 h) of 22%.
Work on `COC(=O)Nc1ccc2c(c1)NC(=O)CC/C=C/CC(NC(=O)OC(C)(C)C)c1cc(Cl)nnc1-2` (stereo not drawn) yielded a ring closure, isolated yield [1] of 56% and a ring closure, yield of all isomers (from C=CCCC(=O)Nc1cc(NC(=O)OC)ccc1-c1nnc(Cl)cc1C(CC=C)NC(=O)OC(C)(C)C, rcm bond, Grubbs II, DCM, 6.6 mM, 40.0 °C, 1.0 h) of 56%.
Work on `COC(=O)Nc1ccc2c(c1)NC(=O)CCC(C)=CC[C@H](NC(=O)OC(C)(C)C)c1nc-2cn1COCC[Si](C)(C)C` yielded a ring closure, yield of all isomers (from C=CC[C@H](NC(=O)OC(C)(C)C)c1nc(-c2ccc(NC(=O)OC)cc2NC(=O)CCC(=C)C)cn1COCC[Si](C)(C)C, rcm bond, Grubbs II, DCE, 105.0 mM, 120.0 °C, 0.33 h) of 34.6%.
In the case of `COC(=O)Nc1ccc2c(c1)NC(=O)CCC=CC[C@H](NC(=O)OC(C)(C)C)c1cc-2ccn1`, the ring closure, yield of all isomers (from C=CCCC(=O)Nc1cc(NC(=O)OC)ccc1-c1ccnc([C@H](CC=C)NC(=O)OC(C)(C)C)c1, rcm bond, Grubbs II, DCM, 0.99 mM, 40.0 °C, 1.5 h) is reported as 75%.
With `COC(=O)Nc1ccc2c(c1)NC(=O)CCN(C(=O)OC(C)(C)C)C[C@H](NC(=O)OCc1ccccc1)c1nc-2cn1COCC[Si](C)(C)C` the ring closure, yield of all isomers (from COC(=O)Nc1ccc(-c2cn(COCC[Si](C)(C)C)c([C@H](CN(CCC(=O)O)C(=O)OC(C)(C)C)NC(=O)OCc3ccccc3)n2)c(N)c1, amide bond, BOP, DCM, 0.93 mM, 25.0 °C, 5.0 h) was 87%.
For `COC(=O)Nc1ccc2c(c1)N[C@@H](C(=O)OC)CC=CC[C@H](NC(=O)OC(C)(C)C)c1nc-2cn1COCC[Si](C)(C)C`, the ring closure, yield of all isomers (from C=CC[C@H](NC(=O)OC(C)(C)C)c1nc(-c2ccc(NC(=O)OC)cc2N[C@H](CC=C)C(=O)OC)cn1COCC[Si](C)(C)C, rcm bond, Grubbs II, DCE, 40.0 mM, 120.0 °C, 0.33 h) was 30%.
With `COC(=O)c1ccc2c(c1)OCCNC(=O)CC(NC(=O)OC(C)(C)C)c1cc-2nnc1Cl` (stereo not drawn) the ring closure, yield of all isomers (from COC(=O)c1ccc(-c2cc(C(CC(=O)O)NC(=O)OC(C)(C)C)c(Cl)nn2)c(OCCN)c1, amide bond, BOP, DCM, 1.28 mM, 25.0 °C, 2.5 h) was 15.3%.
`CC(C)(C)OC(=O)N[C@H]1CC=CCCC(=O)Nc2ccccc2C2=NN=C1O2` (mixture of isomers) gave a ring closure, yield of all isomers (from C=CCCC(=O)Nc1ccccc1-c1nnc([C@H](CC=C)NC(=O)OC(C)(C)C)o1, rcm bond, Grubbs II, DCM, 4.8 mM, 75.0 °C, 1.5 h) of 27%.
For `COC(=O)Nc1ccc2c(c1)NC(=O)CCCC[C@H](NC(=O)c1c(F)cc(C)cc1F)c1cc-2ccn1` [II-4], the Ki [2] was 111 nM.
Work on `COC(=O)Nc1ccc2c(c1)NC(=O)CCCCC(NC(=O)/C=C/c1cc(Cl)ccc1-n1cnnn1)c1cc-2nc(C)n1` (stereo not drawn) [II-10] yielded a Ki [2] of 23 nM.
In the case of `COC(=O)Nc1ccc2c(c1)NC(C(F)(F)F)CCCC[C@H](NC(=O)C1CCC(CN)CC1)c1cc-2ccn1` (stereo partly drawn) [II-13], the Ki [2] is reported as < 5 nM.
In the case of `COC(=O)Nc1ccc2c(c1)NC(C(F)(F)F)CCCC[C@H](NC(=O)c1ccc(C(=N)N)cc1)c1cc-2ccn1` (stereo partly drawn) [II-15], the Ki [2] is reported as 4160 nM.
Work on `CCOC(=O)C1CCCC[C@H](NC(=O)/C=C/c2cc(Cl)ccc2-n2cnnn2)c2cc(ccn2)-c2ccc(NC(=O)OC)cc2N1` (stereo partly drawn) [II-18] yielded a Ki [2] of 572 nM.
With `COC(=O)Nc1ccc2c(c1)N[C@@H](C(=O)N1CCN(C)CC1)CCCC[C@H](NC(=O)/C=C/c1cc(Cl)ccc1-n1cnnn1)c1cc-2ccn1` [II-35] the Ki [2] was < 5 nM.
With `CCOC(=O)[C@@H]1CCCC[C@H](NC(=O)/C=C/c2c(-n3cnnn3)ccc(Cl)c2F)c2cc(ccn2)-c2ccc(NC(=O)OCCOC)cc2N1` [II-43] the Ki [2] was 938 nM.
With `COC(=O)Nc1ccc2c(c1)N[C@@H](C(=O)NCc1ccccn1)CCCC[C@H](NC(=O)/C=C/c1cc(Cl)ccc1-n1cnnn1)c1cncc-2c1` [II-58] the Ki [2] was 21 nM.
In the case of `CCOC(=O)C1CCCCC(NC(=O)/C=C/c2cc(Cl)ccc2-n2cnnn2)c2cc(cc(=O)[nH]2)-c2ccc(NC(=O)OC)cc2N1` (stereo not drawn) [II-62], the Ki [2] is reported as < 5 nM.
